Measured values taken from US11427549B2, “Pyrimidinyloxy benzo-fused compounds as herbicides” (FMC Corporation, priority 2017, dated 2022).

Assays:
[1] = test system: barnyardgrass (Echinochloa crus-galli); test: Test A preemergence, barnyardgrass; format: in vivo; details: Echinochloa crus-galli, pre-emergence, 240 h, 0 to 100 scale (0 no effect, 100 complete control), read-out: Plant response rating, Barnyardgrass; for pest or weed control at 125 g/ha: 125 g ai/ha
Text: (§1) Seeds of plant species selected from barnyardgrass (Echinochloa crus-galli), kochia (Kochia scoparia), ragweed (common ragweed, Ambrosia elatior), ryegrass, Italian (Italian ryegrass, Lolium multiflorum), foxtail, giant (giant foxtail, Setaria faberii), foxtail, green (green foxtail, Setaria viridis) and pigweed (Amaranthus retroflexus) were planted into a blend of loam soil and sand and treated preemergence with a directed soil spray using test chemicals formulated in a non-phytotoxic solvent mixture which included a surfactant.
(§2) At the same time, plants selected from these weed species and also wheat (Triticum aestivum), corn (Zea mays), blackgrass (Alopecurus myosuroides), and galium (catchweed bedstraw, Galium aparine) were planted in pots containing the same blend of loam soil and sand and treated with postemergence applications of test chemicals formulated in the same manner. Plants ranged in height from 2 to 10 cm and were in the one- to two-leaf stage for the postemergence treatment. Treated plants and untreated controls were maintained in a greenhouse for approximately 10 days, after which time all treated plants were compared to untreated controls and visually evaluated for injury. […] A dash (-) response means no test result.

kochia (Kochia scoparia) [2] = test: Test A preemergence, kochia; format: in vivo; details: Bassia scoparia, pre-emergence, 240 h, 0 to 100 scale (0 no effect, 100 complete control), read-out: Plant response rating, Kochia; for pest or weed control at 125 g/ha: 125 g ai/ha
Text: as §1, §2

[3] = test system: ragweed (common ragweed, Ambrosia elatior); test: Test A preemergence, ragweed; format: in vivo; details: Ambrosia artemisiifolia, pre-emergence, 240 h, 0 to 100 scale (0 no effect, 100 complete control), read-out: Plant response rating, Ragweed; for pest or weed control at 125 g/ha: 125 g ai/ha
Text: as §1, §2

[4] = test system: ryegrass, Italian (Italian ryegrass, Lolium multiflorum); test: Test A preemergence, ryegrass, Italian; format: in vivo; details: Lolium multiflorum, pre-emergence, 240 h, 0 to 100 scale (0 no effect, 100 complete control), read-out: Plant response rating, Ryegrass, Italian; for pest or weed control at 125 g/ha: 125 g ai/ha
Text: as §1, §2

[5] = test system: pigweed (Amaranthus retroflexus); test: Test A preemergence, pigweed; format: in vivo; details: Amaranthus retroflexus, pre-emergence, 240 h, 0 to 100 scale (0 no effect, 100 complete control), read-out: Plant response rating, Pigweed; for pest or weed control at 125 g/ha: 125 g ai/ha
Text: as §1, §2

[6] = test system: barnyardgrass (Echinochloa crus-galli); test: Test A postemergence, barnyardgrass; format: in vivo; details: Echinochloa crus-galli, post-emergence, 240 h, 0 to 100 scale (0 no effect, 100 complete control), read-out: Plant response rating, Barnyardgrass; for pest or weed control at 125 g/ha: 125 g ai/ha
Text: as §1, §2

kochia (Kochia scoparia) [7] = test: Test A postemergence, kochia; format: in vivo; details: Bassia scoparia, post-emergence, 240 h, 0 to 100 scale (0 no effect, 100 complete control), read-out: Plant response rating, Kochia; for pest or weed control at 125 g/ha: 125 g ai/ha
Text: as §1, §2

[8] = test system: ragweed (common ragweed, Ambrosia elatior); test: Test A postemergence, ragweed; format: in vivo; details: Ambrosia artemisiifolia, post-emergence, 240 h, 0 to 100 scale (0 no effect, 100 complete control), read-out: Plant response rating, Ragweed; for pest or weed control at 125 g/ha: 125 g ai/ha
Text: as §1, §2

[9] = test system: ryegrass, Italian (Italian ryegrass, Lolium multiflorum); test: Test A postemergence, ryegrass, Italian; format: in vivo; details: Lolium multiflorum, post-emergence, 240 h, 0 to 100 scale (0 no effect, 100 complete control), read-out: Plant response rating, Ryegrass, Italian; for pest or weed control at 125 g/ha: 125 g ai/ha
Text: as §1, §2

[10] = test system: pigweed (Amaranthus retroflexus); test: Test A postemergence, pigweed; format: in vivo; details: Amaranthus retroflexus, post-emergence, 240 h, 0 to 100 scale (0 no effect, 100 complete control), read-out: Plant response rating, Pigweed; for pest or weed control at 125 g/ha: 125 g ai/ha
Text: as §1, §2

[11] = test system: wheat (Triticum aestivum); test: Test A postemergence, wheat; format: in vivo; details: Triticum aestivum, post-emergence, 240 h, 0 to 100 scale (0 no effect, 100 complete control), read-out: Plant response rating, Wheat; for plant injury at 125 g/ha: 125 g ai/ha
Text: as §1, §2

corn (Zea mays) = test: Test A postemergence, corn; format: in vivo; details: Zea mays, post-emergence, 240 h, 0 to 100 scale (0 no effect, 100 complete control); for Corn plant response rating (crop injury, 0 = no effect, 100 = complete kill) at 125 g/ha: 125 g ai/ha
Text: as §1, §2

[12] = test system: blackgrass (Alopecurus myosuroides); test: Test A postemergence, blackgrass; format: in vivo; details: Alopecurus myosuroides, post-emergence, 240 h, 0 to 100 scale (0 no effect, 100 complete control), read-out: Plant response rating, Blackgrass; for pest or weed control at 125 g/ha: 125 g ai/ha
Text: as §1, §2

[13] = test system: galium (catchweed bedstraw, Galium aparine); test: Test A postemergence, galium; format: in vivo; details: Galium, post-emergence, 240 h, 0 to 100 scale (0 no effect, 100 complete control), read-out: Plant response rating, Galium; for pest or weed control at 125 g/ha: 125 g ai/ha
Text: as §1, §2

rice (Oryza sativa) = test: Test B flooded paddy test, rice; details: Oryza sativa, read-out: Plant response rating, Rice (0 to 100 scale, 0 is no effect, 100 is complete control)
[14] = test system: ducksalad (Heteranthera limosa); test: Test B flooded paddy test, ducksalad; details: Heteranthera limosa, read-out: Plant response rating, Ducksalad (0 to 100 scale, 0 is no effect, 100 is complete control)
[15] = test system: barnyardgrass (Echinochloa crus-galli); test: Test B flooded paddy test, barnyardgrass; details: Echinochloa crus-galli, read-out: Plant response rating, Barnyardgrass (0 to 100 scale, 0 is no effect, 100 is complete control)

Compound | pest or weed control at 125 g/ha [1] [%] | pest or weed control at 125 g/ha (kochia (Kochia scoparia) [2]) [%] | pest or weed control at 125 g/ha [3] [%] | pest or weed control at 125 g/ha [4] [%] | pest or weed control at 125 g/ha [5] [%] | pest or weed control at 125 g/ha [6] [%] | pest or weed control at 125 g/ha (kochia (Kochia scoparia) [7]) [%] | pest or weed control at 125 g/ha [8] [%] | pest or weed control at 125 g/ha [9] [%] | pest or weed control at 125 g/ha [10] [%] | plant injury at 125 g/ha [11] [%] | Corn plant response rating (crop injury, 0 = no effect, 100 = complete kill) at 125 g/ha (corn (Zea mays)) [%] | pest or weed control at 125 g/ha [12] [%] | pest or weed control at 125 g/ha [13] [%] | plant injury at 250 g/ha (rice (Oryza sativa)) [%] | pest or weed control at 250 g/ha [14] [%] | pest or weed control at 250 g/ha [15] [%] | also measured
O=C1OC(CCCC(F)(F)F)c2c(Oc3ncc(Cl)cn3)cccc21 (centres unmarked) [Compound 1, 4-[(5-Chloro-2-pyrimidinyl)oxy]-3-(4,4,4-trifluorobutyl)-1(3H)-isobenzofuranone] | 100 | 100 | 80 | 80 | 100 | 70 | 100 | 10 | 50 | 100 | 30 | 40 | 40 | 100 | 0 | 20 | 0 | pest or weed control at 500 g/ha ([1]; 500 g ai/ha): 100%; pest or weed control at 500 g/ha (kochia (Kochia scoparia) [2]; 500 g ai/ha): 100%; pest or weed control at 500 g/ha ([3]; 500 g ai/ha): 90%; pest or weed control at 500 g/ha ([4]; 500 g ai/ha): 100%; pest or weed control at 500 g/ha ([5]; 500 g ai/ha): 100%; pest or weed control at 500 g/ha ([6]; 500 g ai/ha): 80%; pest or weed control at 500 g/ha (kochia (Kochia scoparia) [7]; 500 g ai/ha): 100%; pest or weed control at 500 g/ha ([8]; 500 g ai/ha): 40%; pest or weed control at 500 g/ha ([9]; 500 g ai/ha): 80%; pest or weed control at 500 g/ha ([10]; 500 g ai/ha): 100%; plant injury at 500 g/ha ([11]; 500 g ai/ha): 80%; Corn plant response rating (crop injury, 0 = no effect, 100 = complete kill) at 500 g/ha (corn (Zea mays); 500 g ai/ha): 60%; pest or weed control at 500 g/ha ([12]; 500 g ai/ha): 100%; pest or weed control at 500 g/ha ([13]; 500 g ai/ha): 100%
O=C1O[C@@H](CCCC(F)(F)F)c2c(Oc3ncc(Cl)cn3)cccc21 [Compound 2, (3S)-4-[(5-Chloro-2-pyrimidinyl)oxy]-3-(4,4,4-trifluorobutyl)-1-(3H)-isobenzofuranone] | 0 | 0 | 0 | 0 | 20 | 0 | 10 | 30 | 10 | 50 | 0 | 10 | 0 | 10 | 0 | 0 | 0 | pest or weed control at 31 g/ha ([1]; 31 g ai/ha): 0%; pest or weed control at 31 g/ha (kochia (Kochia scoparia) [2]; 31 g ai/ha): 0%; pest or weed control at 31 g/ha ([3]; 31 g ai/ha): 0%; pest or weed control at 31 g/ha ([4]; 31 g ai/ha): 0%; pest or weed control at 31 g/ha ([5]; 31 g ai/ha): 0%; pest or weed control at 31 g/ha ([6]; 31 g ai/ha): 0%; pest or weed control at 31 g/ha (kochia (Kochia scoparia) [7]; 31 g ai/ha): 0%; pest or weed control at 31 g/ha ([8]; 31 g ai/ha): 0%; pest or weed control at 31 g/ha ([9]; 31 g ai/ha): 0%; pest or weed control at 31 g/ha ([10]; 31 g ai/ha): 10%; plant injury at 31 g/ha ([11]; 31 g ai/ha): 0%; Corn plant response rating (crop injury, 0 = no effect, 100 = complete kill) at 31 g/ha (corn (Zea mays); 31 g ai/ha): 0%; pest or weed control at 31 g/ha ([12]; 31 g ai/ha): 0%; pest or weed control at 31 g/ha ([13]; 31 g ai/ha): 0%
